{
  "source": "patent US8772280B2",
  "about": "“N-aryl-2-(2-arylaminopyrimidin-4-yl)pyrrol-4-carboxamide derivatives as MPS1 kinase inhibitors” (Nerviano Medical Sciences S.R.L., priority 2009, dated 2014)",
  "data": [
    {"target": "MPS1 (Homo sapiens, UniProt P33981)", "sequence (P33981 2-857)": "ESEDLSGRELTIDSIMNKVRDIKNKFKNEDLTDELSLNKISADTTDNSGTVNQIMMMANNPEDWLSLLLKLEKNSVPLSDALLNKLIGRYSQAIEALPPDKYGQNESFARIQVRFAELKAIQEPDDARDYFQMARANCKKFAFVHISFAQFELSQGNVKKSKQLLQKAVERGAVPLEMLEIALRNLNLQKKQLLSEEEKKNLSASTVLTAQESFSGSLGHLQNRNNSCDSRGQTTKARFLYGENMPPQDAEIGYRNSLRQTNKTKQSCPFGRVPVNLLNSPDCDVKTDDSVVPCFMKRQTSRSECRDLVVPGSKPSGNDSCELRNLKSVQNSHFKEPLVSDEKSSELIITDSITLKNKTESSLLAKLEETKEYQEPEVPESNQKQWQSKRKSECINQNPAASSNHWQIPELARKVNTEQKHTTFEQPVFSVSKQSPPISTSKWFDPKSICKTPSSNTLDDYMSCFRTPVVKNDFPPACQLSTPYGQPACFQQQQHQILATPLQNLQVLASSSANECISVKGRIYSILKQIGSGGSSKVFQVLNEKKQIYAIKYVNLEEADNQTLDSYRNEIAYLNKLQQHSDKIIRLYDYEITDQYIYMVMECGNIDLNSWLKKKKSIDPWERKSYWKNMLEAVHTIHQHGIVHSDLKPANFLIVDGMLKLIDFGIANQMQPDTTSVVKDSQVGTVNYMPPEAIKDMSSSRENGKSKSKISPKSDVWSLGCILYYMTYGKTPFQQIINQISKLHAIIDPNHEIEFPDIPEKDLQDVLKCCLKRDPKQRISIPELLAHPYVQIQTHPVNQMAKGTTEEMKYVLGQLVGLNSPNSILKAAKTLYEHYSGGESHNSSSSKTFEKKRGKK", "assay": "biochemical", "description": "Amplification was performed using the forward oligonucleotide:\nThe inhibitory activity of putative kinase inhibitors and the potency of selected compounds were determined using a trans-phosphorylation assay.\nThree cycles of mixing are done immediately after the addition of the resin.", "units": {"IC50": "µM"}, "values": [
      {"compound": "CCc1cccc(CC)c1NC(=O)c1cc(-c2nc(Nc3ccc(C(=O)N4CCC(N(C)C)CC4)cc3C)ncc2C)n(C)c1", "note": "[Compound 31, 5-{2-[4-(4-Dimethylamino-piperidine-1-carbonyl)-2-methyl-phenylamino]-5-methyl-pyrimidin-4-yl}-1-methyl-1H-pyrrole-3-carboxylic acid (2,6-diethyl-phenyl)-amide]", "IC50": 0.067},
      {"compound": "COc1cc(N2CCN(C)CC2)ccc1Nc1nccc(-c2cc(C(=O)Nc3c(C)cccc3Cl)cn2C)n1", "note": "[Compound 37, 5-{2-[2-Methoxy-4-(4-methyl-piperazin-1-yl)-phenylamino]-pyrimidin-4-yl}-1-methyl-1H-pyrrole-3-carboxylic acid (2-chloro-6-methyl-phenyl)-amide]", "IC50": 0.084},
      {"compound": "CCc1cccc(CC)c1NC(=O)c1cc(-c2ccnc(Nc3ccc(N(C)CCCN(C)C)cc3OC)n2)n(C)c1", "note": "[Compound 32, 5-(2-{4-[(3-Dimethylamino-propyl)-methyl-amino]-2-methoxy-phenylamino}-pyrimidin-4-yl)-1-methyl-1H-pyrrole-3-carboxylic acid (2,6-diethyl-phenyl)-amide]", "IC50": 0.11},
      {"compound": "CCc1cccc(CC)c1NC(=O)c1cc(-c2ccnc(Nc3ccc(C(=O)N(C)C)cc3C)n2)n(C)c1", "note": "[Compound 14, 5-[2-(4-Dimethylcarbamoyl-2-methyl-phenylamino)-pyrimidin-4-yl]-1-methyl-1H-pyrrole-3-carboxylic acid (2,6-diethyl-phenyl)-amide]", "IC50": 0.041},
      {"compound": "CCc1cccc(CC)c1NC(=O)c1cc(-c2nc(Nc3ccc(C(N)=O)cc3C)ncc2Cl)n(C)c1Cl", "note": "[Compound 21, 5-[2-(4-Carbamoyl-2-methyl-phenylamino)-5-chloro-pyrimidin-4-yl]-2-chloro-1-methyl-1H-pyrrole-3-carboxylic acid (2,6-diethyl-phenyl)-amide]", "IC50": 0.022}
    ]}
  ]
}
